Source: paper PMC9508239 (Nature Communications, 2022)
Where “and” joins values, the source holds several entries; their conditions need not be identical. Equal values may be shown once.

How the values were obtained:
IR K484E/L552A = test: Auto-phosphorylation of IR in 293FT cells expressing IR K484E/L552A; format: cell-based, human; details: 10 nM, 10 min
Experimental: (§1) For the activation assay, the short isoform of human IR in pCS2-MYC was used as described previously[20],[49]. Plasmid transfections into 293FT cells were performed with Lipofectamin^TM 2000 (Invitrogen).
(§2) The cells were incubated with the lysis buffer B [50 mM Hepes pH 7.4, 150 mM NaCl, 10% Glycerol, 1% Triton X-100, 1 mM EDTA, 100 mM sodium fluoride, 2 mM sodium orthovanadate, 20 mM sodium pyrophosphate, 0.5 mM dithiothreitol (DTT), 2 mM phenylmethylsulfonyl fluoride (PMSF)] supplemented with cOmplete Protease Inhibitor Cocktail (Roche), PhosSTOP (Sigma), and 25 U/ml turbo nuclease (Accelagen) on ice for 1 h. After centrifuging at 20,817×g at 4 °C for 10 min, the concentrations of cell lysate were measured using Micro BCA Protein Assay Kit (Thermo Scientific). About 50–60 μg total proteins were analyzed by SDS-PAGE and quantitative Western blotting. […] For quantitative western blots, anti-rabbit immunoglobulin G (IgG) (H + L) (WB, 1:5000; Dylight 800 conjugates, Cat. #5151) and anti-mouse IgG (H + L) (WB, 1:5000; Dylight 680 conjugates, Cat. #5470) (Cell Signaling) were used as secondary antibodies. […]

IR F64A = test: Auto-phosphorylation of IR in 293FT cells expressing IR F64A; format: cell-based, human; details: 10 nM, 10 min
Experimental: as §1, §2

IR R14W = test: Auto-phosphorylation of IR in 293FT cells expressing IR R14W; format: cell-based, human
Experimental: as §1, §2

IR F497A = test: Auto-phosphorylation of IR in 293FT cells expressing IR F497A; format: cell-based, human
Experimental: as §1, §2

IR R345A = test: Auto-phosphorylation of IR in 293FT cells expressing IR R345A; format: cell-based, human
Experimental: as §1, §2

endogenous murine IR = test: IR signaling (pY IR, pAKT, pERK) in GFP MEFs, tamoxifen-inducible IR knockout (Fig. S8); format: cell-based, mouse; details: tamoxifen treatment, high concentration of insulin
Experimental: IR^F/F mice (Jackson #006955[71]) were crossed with CAG-CRE/ERT mice (Jackson #004682) to generate IR^F/F; CRE-ERT mice. The IR^F/F; CRE-ERT mice were backcrossed nine generations to C57BL/6 (Jackson #000664). The MEFs from IR^F/F; CRE-ERT mice were isolated as described earlier with some modifications. E14.5 embryos were minced with sterile scalpels and incubated with 0.25% trypsin-EDTA for 10 min at 37 °C and a 5% CO2 incubator. Fresh 0.25% trypsin-EDTA was added. After 10 min incubation, cells were put into fresh DMEM containing supplemented 10% (v/v) FBS, 2 mM L-glutamine, 55 μM β-mercaptoethanol, and 1% penicillin/streptomycin, and then centrifuged at 290×g for 5 min. […]
The cells were incubated with the lysis buffer B [50 mM Hepes pH 7.4, 150 mM NaCl, 10% Glycerol, 1% Triton X-100, 1 mM EDTA, 100 mM sodium fluoride, 2 mM sodium orthovanadate, 20 mM sodium pyrophosphate, 0.5 mM dithiothreitol (DTT), 2 mM phenylmethylsulfonyl fluoride (PMSF)] supplemented with cOmplete Protease Inhibitor Cocktail (Roche), PhosSTOP (Sigma), and 25 U/ml turbo nuclease (Accelagen) on ice for 1 h. After centrifuging at 20,817×g at 4 °C for 10 min, the concentrations of cell lysate were measured using Micro BCA Protein Assay Kit (Thermo Scientific). About 50–60 μg total proteins were analyzed by SDS-PAGE and quantitative Western blotting. […]

[1] = Body weight after chronic treatment, before OGTT; format: in vivo, mouse
Experimental: For the oral glucose tolerance test, mice were fasted for 6 h and their blood glucose levels (T = 0) were measured with tail bleeding using a glucometer (AlphaTRAK). After then, glucose (2 g/kg body weight) was administered by oral gavage. Blood glucose levels were measured at the indicated time points after glucose administration. For Fig. S10f, 2 months old male mice were fasted for 14 h. […] One hour later, livers were collected.

insulin: native IR ligand used as comparator; Humulin in the in vivo tests
IR activation (IR K484E/L552A): could not be activated efficiently
IR activation (IR F64A): defective insulin-dependent activation
IR activation (IR R14W): reduced insulin-dependent IR activation
IR activation (IR F497A): can be activated by insulin but with lesser efficiency than IR WT
IR activation (IR R345A): largely diminished IR activation by insulin
downstream signaling through residual IR (endogenous murine IR): could activate downstream signaling
Body weight before OGTT ([1]; 50U/kg body weight, i.p., once daily for three days, male C57BL/6J, individual mice, N = 5, listed as Ins, in g (unit assumed)): 19.9 and 21.6
Body weight, significance ([1]; 50U/kg once daily for three days, two-tailed Student's t-test): No significant
